Results: ChEMBL document CHEMBL3877300, “Design, synthesis, docking studies and biological evaluation of novel dihydro-1,3,5-triazines as human DHFR inhibitors” (Eur J Med Chem, 2017)
pIC50: −log10 of the molar value.

Experiments:
cells [1] = conditions: Homo sapiens, A549, 72 h
Description: Antiproliferative activity against human A549 cells after 72 hrs by MTT assay

Mus musculus [2] = test: Toxicity in BALB/c nude mouse xenografted with human A549 cells assessed as body weight at 50 mg/kg, ip administered 14 times in 22 days measured on day 8 post dose (reference value: 25.19 +/- 1.38 g); format: organism-based; conditions: in vivo, 528 h
[3] = Antitumor activity against human A549 cells xenografted in BALB/c nude mouse assessed as tumor volume at 50 mg/kg, ip administered 14 times in 22 days measured on day 22 post dose (reference value: 912.28 +/- 140.04 mm3); format: functional
[4] = Antitumor activity against human A549 cells xenografted in BALB/c nude mouse assessed as tumor growth inhibition at 50 mg/kg, ip administered 14 times in 22 days measured on day 4 post dose relative to control; format: functional; conditions: read-out: TGI
[5] = Antitumor activity against human A549 cells xenografted in BALB/c nude mouse assessed as tumor growth inhibition at 50 mg/kg, ip administered 14 times in 22 days measured on day 22 post dose relative to control; format: functional; conditions: 528 h, read-out: TGI
Mus musculus [6] = test: Toxicity in BALB/c nude mouse xenografted with human A549 cells assessed as body weight at 50 mg/kg, ip administered 14 times in 22 days measured on day 15 post dose (reference value: 25.41 +/- 1.04 g); format: organism-based; conditions: in vivo, 528 h
Mus musculus [7] = test: Toxicity in BALB/c nude mouse xenografted with human A549 cells assessed as body weight at 50 mg/kg, ip administered 14 times in 22 days measured on day 11 post dose (reference value: 24.99 +/- 0.97 g); format: organism-based; conditions: in vivo, 528 h
[8] = Antitumor activity against human A549 cells xenografted in BALB/c nude mouse assessed as tumor growth inhibition at 50 mg/kg, ip administered 14 times in 22 days measured on day 15 post dose relative to control; format: functional; conditions: read-out: TGI
[9] = Antitumor activity against human A549 cells xenografted in BALB/c nude mouse assessed as tumor volume at 50 mg/kg, ip administered 14 times in 22 days measured on day 15 post dose (reference value: 502.27 +/- 69.26 mm3); format: functional
Dihydrofolate reductase = biological target: T1, Dihydrofolate reductase (Homo sapiens, UniProt P00374); test: Inhibition of recombinant human DHFR using DHF as substrate measured every 5 sec over 6 mins in presence of NADPH by UV-Visible spectrophotometric method relative to control
T1 sequence (P00374 whole entry): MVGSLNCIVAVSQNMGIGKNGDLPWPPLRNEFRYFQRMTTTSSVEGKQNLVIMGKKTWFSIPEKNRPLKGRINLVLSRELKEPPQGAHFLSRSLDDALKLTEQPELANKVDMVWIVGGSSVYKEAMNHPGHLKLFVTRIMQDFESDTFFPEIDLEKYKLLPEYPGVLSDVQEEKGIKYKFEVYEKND

[10] = Antitumor activity against human A549 cells xenografted in BALB/c nude mouse assessed as tumor volume at 50 mg/kg, ip administered 14 times in 22 days measured on day 11 post dose (reference value: 373.93 +/- 59.98 mm3); format: functional
Mus musculus [11] = test: Toxicity in BALB/c nude mouse xenografted with human A549 cells assessed as body weight at 50 mg/kg, ip administered 14 times in 22 days measured on day 22 post dose (reference value: 25.59 +/- 1.16 g); format: organism-based; conditions: in vivo, 528 h
[12] = Antitumor activity against human A549 cells xenografted in BALB/c nude mouse assessed as tumor volume at 50 mg/kg, ip administered 14 times in 22 days measured on day 8 post dose (reference value: 288.71 +/- 54.75 mm3); format: functional
[13] = Antitumor activity against human A549 cells xenografted in BALB/c nude mouse assessed as tumor growth inhibition at 50 mg/kg, ip administered 14 times in 22 days measured on day 18 post dose relative to control; format: functional; conditions: read-out: TGI
Mus musculus [14] = test: Toxicity in BALB/c nude mouse xenografted with human A549 cells assessed as body weight at 50 mg/kg, ip administered 14 times in 22 days measured on day 4 post dose (reference value: 24.84 +/- 1.22 g); format: organism-based; conditions: in vivo, 528 h
[15] = Antitumor activity against human A549 cells xenografted in BALB/c nude mouse assessed as tumor growth inhibition at 50 mg/kg, ip administered 14 times in 22 days measured on day 11 post dose relative to control; format: functional; conditions: read-out: TGI
[16] = Antitumor activity against human A549 cells xenografted in BALB/c nude mouse assessed as tumor volume at 50 mg/kg, ip administered 14 times in 22 days measured on day 1 post dose (reference value: 117.71 +/- 7.29 mm3); format: functional
Mus musculus [17] = test: Toxicity in BALB/c nude mouse xenografted with human A549 cells assessed as body weight at 50 mg/kg, ip administered 14 times in 22 days measured on day 18 post dose (reference value: 25.66 +/- 1.16 g); format: organism-based; conditions: in vivo, 528 h
cells [18] = conditions: Homo sapiens, HCT-116, 72 h
Description: Antiproliferative activity against human HCT116 cells after 72 hrs by MTT assay

[19] = Antitumor activity against human A549 cells xenografted in BALB/c nude mouse assessed as tumor growth inhibition at 50 mg/kg, ip administered 14 times in 22 days measured on day 8 post dose relative to control; format: functional; conditions: read-out: TGI
[20] = Antiproliferative activity against human HL60 cells after 72 hrs by MTT assay; format: functional, cell-based; conditions: HL-60, 72 h
Mus musculus [21] = test: Toxicity in BALB/c nude mouse xenografted with human A549 cells assessed as body weight at 50 mg/kg, ip administered 14 times in 22 days measured on day 1 post dose (reference value: 24.73 +/- 1.33 g); format: organism-based; conditions: in vivo, 528 h
[22] = Antitumor activity against human A549 cells xenografted in BALB/c nude mouse assessed as tumor volume at 50 mg/kg, ip administered 14 times in 22 days measured on day 18 post dose (reference value: 692.11 +/- 102.17 mm3); format: functional
[23] = Antitumor activity against human A549 cells xenografted in BALB/c nude mouse assessed as tumor volume at 50 mg/kg, ip administered 14 times in 22 days measured on day 4 post dose (reference value: 207.73 +/- 56.48 mm3); format: functional
[24] = Antitumor activity against human A549 cells xenografted in BALB/c nude mouse assessed as tumor volume at 2 mg/kg, ip administered 14 times in 22 days measured on day 4 post dose (reference value: 207.73 +/- 56.48 mm3); format: functional
[25] = Antitumor activity against human A549 cells xenografted in BALB/c nude mouse assessed as tumor volume at 2 mg/kg, ip administered 14 times in 22 days measured on day 11 post dose (reference value: 373.93 +/- 59.98 mm3); format: functional
Mus musculus [26] = test: Toxicity in BALB/c nude mouse xenografted with human A549 cells assessed as body weight at 2 mg/kg, ip administered 14 times in 22 days measured on day 15 post dose (reference value: 25.41 +/- 1.04 g); format: organism-based; conditions: in vivo, 528 h
Mus musculus [27] = test: Toxicity in BALB/c nude mouse xenografted with human A549 cells assessed as body weight at 2 mg/kg, ip administered 14 times in 22 days measured on day 11 post dose (reference value: 24.99 +/- 0.97 g); format: organism-based; conditions: in vivo, 528 h
[28] = Antitumor activity against human A549 cells xenografted in BALB/c nude mouse assessed as tumor volume at 2 mg/kg, ip administered 14 times in 22 days measured on day 15 post dose (reference value: 502.27 +/- 69.26 mm3); format: functional
[29] = Antitumor activity against human A549 cells xenografted in BALB/c nude mouse assessed as tumor growth inhibition at 2 mg/kg, ip administered 14 times in 22 days measured on day 18 post dose relative to control; format: functional; conditions: read-out: TGI
Mus musculus [30] = test: Toxicity in BALB/c nude mouse xenografted with human A549 cells assessed as body weight at 2 mg/kg, ip administered 14 times in 22 days measured on day 18 post dose (reference value: 25.66 +/- 1.16 g); format: organism-based; conditions: in vivo, 528 h
Mus musculus [31] = test: Toxicity in BALB/c nude mouse xenografted with human A549 cells assessed as body weight at 2 mg/kg, ip administered 14 times in 22 days measured on day 8 post dose (reference value: 25.19 +/- 1.38 g); format: organism-based; conditions: in vivo, 528 h
[32] = Antitumor activity against human A549 cells xenografted in BALB/c nude mouse assessed as tumor volume at 2 mg/kg, ip administered 14 times in 22 days measured on day 22 post dose (reference value: 912.28 +/- 140.04 mm3); format: functional
[33] = Antitumor activity against human A549 cells xenografted in BALB/c nude mouse assessed as tumor growth inhibition at 2 mg/kg, ip administered 14 times in 22 days measured on day 11 post dose relative to control; format: functional; conditions: read-out: TGI
Mus musculus [34] = test: Toxicity in BALB/c nude mouse xenografted with human A549 cells assessed as body weight at 2 mg/kg, ip administered 14 times in 22 days measured on day 22 post dose (reference value: 25.59 +/- 1.16 g); format: organism-based; conditions: in vivo, 528 h
Mus musculus [35] = test: Toxicity in BALB/c nude mouse xenografted with human A549 cells assessed as body weight at 2 mg/kg, ip administered 14 times in 22 days measured on day 4 post dose (reference value: 24.84 +/- 1.22 g); format: organism-based; conditions: in vivo, 528 h
[36] = Antitumor activity against human A549 cells xenografted in BALB/c nude mouse assessed as tumor growth inhibition at 2 mg/kg, ip administered 14 times in 22 days measured on day 8 post dose relative to control; format: functional; conditions: read-out: TGI
[37] = Antiproliferative activity against human MDA-MB-231 cells after 72 hrs by MTT assay; format: functional, cell-based; conditions: MDA-MB-231, 72 h, read-out: IC50
[38] = Antitumor activity against human A549 cells xenografted in BALB/c nude mouse assessed as tumor growth inhibition at 2 mg/kg, ip administered 14 times in 22 days measured on day 22 post dose relative to control; format: functional; conditions: 528 h, read-out: TGI
[39] = Antiproliferative activity against human HepG2 cells after 72 hrs by MTT assay; format: functional, cell-based; conditions: HepG2, 72 h
[40] = Antitumor activity against human A549 cells xenografted in BALB/c nude mouse assessed as tumor volume at 2 mg/kg, ip administered 14 times in 22 days measured on day 8 post dose (reference value: 288.71 +/- 54.75 mm3); format: functional
[41] = Antitumor activity against human A549 cells xenografted in BALB/c nude mouse assessed as tumor growth inhibition at 2 mg/kg, ip administered 14 times in 22 days measured on day 4 post dose relative to control; format: functional; conditions: read-out: TGI
[42] = Antitumor activity against human A549 cells xenografted in BALB/c nude mouse assessed as tumor volume at 2 mg/kg, ip administered 14 times in 22 days measured on day 1 post dose (reference value: 117.71 +/- 7.29 mm3); format: functional
[43] = Antitumor activity against human A549 cells xenografted in BALB/c nude mouse assessed as tumor growth inhibition at 2 mg/kg, ip administered 14 times in 22 days measured on day 15 post dose relative to control; format: functional; conditions: read-out: TGI
Mus musculus [44] = test: Toxicity in BALB/c nude mouse xenografted with human A549 cells assessed as body weight at 2 mg/kg, ip administered 14 times in 22 days measured on day 1 post dose (reference value: 24.73 +/- 1.33 g); format: organism-based; conditions: in vivo, 528 h

SMILES: Br.NC1=NC2(CCOCC2)N(OCCCOc2ccc(Cl)cc2Cl)C(N)=N1
- pIC50 (cells [1]): 7.15
- Activity (Mus musculus [2]): 23.17 g
- Activity [3]: 574.09 mm3
- inhibition in vivo at 50 mg/kg [4]: 17.6%
- inhibition in vivo at 50 mg/kg [5]: 36.8%
- Activity (Mus musculus [6]): 23.63 g
- Activity (Mus musculus [7]): 22.97 g
- inhibition in vivo at 50 mg/kg [8]: 24.7%
- Activity [9]: 378.49 mm3
- pIC50 (Dihydrofolate reductase): 8.13
- Activity [10]: 312.21 mm3
- Activity (Mus musculus [11]): 23.47 g
- Activity [12]: 249.09 mm3
- inhibition in vivo at 50 mg/kg [13]: 32.8%
- Activity (Mus musculus [14]): 23.53 g
- inhibition in vivo at 50 mg/kg [15]: 16.3%
- Activity [16]: 117.63 mm3
- Activity (Mus musculus [17]): 23.65 g
- pIC50 (cells [18]): 6.06
- inhibition in vivo at 50 mg/kg [19]: 14.5%
- pIC50 [20]: 6.48
- Activity (Mus musculus [21]): 23.65 g
- Activity [22]: 468.15 mm3
- Activity [23]: 170.3 mm3

SMILES: CN(Cc1cnc2nc(N)nc(N)c2n1)c1ccc(C(=O)N[C@@H](CCC(=O)O)C(=O)O)cc1 [METHOTREXATE]
- Activity [24]: 153.09 mm3
- Activity [25]: 223.6 mm3
- Activity (Mus musculus [26]): 21.85 g
- pIC50 (cells [1]): 6.60
- Activity (Mus musculus [27]): 23.98 g
- Activity [28]: 271.71 mm3
- inhibition in vivo at 2 mg/kg [29]: 50.6%
- Activity (Mus musculus [30]): 21.62 g
- Activity (Mus musculus [31]): 24.88 g
- Activity [32]: 440.75 mm3
- inhibition in vivo at 2 mg/kg [33]: 29.2%
- Activity (Mus musculus [34]): 21.4 g
- Activity (Mus musculus [35]): 25.47 g
- inhibition in vivo at 2 mg/kg [36]: 32.7%
- pIC50 [37]: 5.02
- inhibition in vivo at 2 mg/kg [38]: 50.8%
- pIC50 [39]: 6.39
- Activity [40]: 189.83 mm3
- inhibition in vivo at 2 mg/kg [41]: 24.6%
- pIC50 (cells [18]): 6.12
- Activity [42]: 115.14 mm3
- pIC50 [20]: 5.96
- inhibition in vivo at 2 mg/kg [43]: 45%
- Activity (Mus musculus [44]): 25.28 g
